Here are results for ten compounds from US20230148214A1, “INDAZOLES AND AZAINDAZOLES AS LRRK2 INHIBITORS” (ESCAPE Bio, Inc., priority 2020, published 2023).

Bounds are passed on as bounds.

The target in experiment [1] is T1, LRRK2 WT (Homo sapiens, UniProt Q5S007).
T1 construct: purchased Life Technologies PR8604B
The experiment is described as follows: LRRK2 Kinase Activity Assay (LanthaScreen TR-FRET), wild type. The format is biochemical. Particulars: recombinant wild type LRRK2, 25 μM ATP, 400 nM LRRKtide, 60 min; class symbols. In a few lines:
(§1)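 IC50 fitted to the compound-dependent loss of TR-FRET signal. Each kinase form, wild type or G2019S, phosphorylated the fluorescein-tagged ERM-derived LRRKtide in the presence of ATP and compound dilutions over 60 min at room temperature; quench contained 10 mM EDTA and 2 nM anti-pERM antibody (final).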
(In TR-FRET formats the signal depends on donor and acceptor labels being close together.)

The target in experiment [2] is T2, LRRK2 G2019S (Homo sapiens, UniProt Q5S007, G2019S).
T2 construct: purchased Life Technologies PV4881
Put plainly: LRRK2 Kinase Activity Assay (LanthaScreen TR-FRET), G2019S. It is filed as biochemical. Particulars: recombinant G2019S-LRRK2, 25 μM ATP, 400 nM LRRKtide, 60 min; class symbols. Summed up: as §1

T1 sequence (Q5S007 whole entry): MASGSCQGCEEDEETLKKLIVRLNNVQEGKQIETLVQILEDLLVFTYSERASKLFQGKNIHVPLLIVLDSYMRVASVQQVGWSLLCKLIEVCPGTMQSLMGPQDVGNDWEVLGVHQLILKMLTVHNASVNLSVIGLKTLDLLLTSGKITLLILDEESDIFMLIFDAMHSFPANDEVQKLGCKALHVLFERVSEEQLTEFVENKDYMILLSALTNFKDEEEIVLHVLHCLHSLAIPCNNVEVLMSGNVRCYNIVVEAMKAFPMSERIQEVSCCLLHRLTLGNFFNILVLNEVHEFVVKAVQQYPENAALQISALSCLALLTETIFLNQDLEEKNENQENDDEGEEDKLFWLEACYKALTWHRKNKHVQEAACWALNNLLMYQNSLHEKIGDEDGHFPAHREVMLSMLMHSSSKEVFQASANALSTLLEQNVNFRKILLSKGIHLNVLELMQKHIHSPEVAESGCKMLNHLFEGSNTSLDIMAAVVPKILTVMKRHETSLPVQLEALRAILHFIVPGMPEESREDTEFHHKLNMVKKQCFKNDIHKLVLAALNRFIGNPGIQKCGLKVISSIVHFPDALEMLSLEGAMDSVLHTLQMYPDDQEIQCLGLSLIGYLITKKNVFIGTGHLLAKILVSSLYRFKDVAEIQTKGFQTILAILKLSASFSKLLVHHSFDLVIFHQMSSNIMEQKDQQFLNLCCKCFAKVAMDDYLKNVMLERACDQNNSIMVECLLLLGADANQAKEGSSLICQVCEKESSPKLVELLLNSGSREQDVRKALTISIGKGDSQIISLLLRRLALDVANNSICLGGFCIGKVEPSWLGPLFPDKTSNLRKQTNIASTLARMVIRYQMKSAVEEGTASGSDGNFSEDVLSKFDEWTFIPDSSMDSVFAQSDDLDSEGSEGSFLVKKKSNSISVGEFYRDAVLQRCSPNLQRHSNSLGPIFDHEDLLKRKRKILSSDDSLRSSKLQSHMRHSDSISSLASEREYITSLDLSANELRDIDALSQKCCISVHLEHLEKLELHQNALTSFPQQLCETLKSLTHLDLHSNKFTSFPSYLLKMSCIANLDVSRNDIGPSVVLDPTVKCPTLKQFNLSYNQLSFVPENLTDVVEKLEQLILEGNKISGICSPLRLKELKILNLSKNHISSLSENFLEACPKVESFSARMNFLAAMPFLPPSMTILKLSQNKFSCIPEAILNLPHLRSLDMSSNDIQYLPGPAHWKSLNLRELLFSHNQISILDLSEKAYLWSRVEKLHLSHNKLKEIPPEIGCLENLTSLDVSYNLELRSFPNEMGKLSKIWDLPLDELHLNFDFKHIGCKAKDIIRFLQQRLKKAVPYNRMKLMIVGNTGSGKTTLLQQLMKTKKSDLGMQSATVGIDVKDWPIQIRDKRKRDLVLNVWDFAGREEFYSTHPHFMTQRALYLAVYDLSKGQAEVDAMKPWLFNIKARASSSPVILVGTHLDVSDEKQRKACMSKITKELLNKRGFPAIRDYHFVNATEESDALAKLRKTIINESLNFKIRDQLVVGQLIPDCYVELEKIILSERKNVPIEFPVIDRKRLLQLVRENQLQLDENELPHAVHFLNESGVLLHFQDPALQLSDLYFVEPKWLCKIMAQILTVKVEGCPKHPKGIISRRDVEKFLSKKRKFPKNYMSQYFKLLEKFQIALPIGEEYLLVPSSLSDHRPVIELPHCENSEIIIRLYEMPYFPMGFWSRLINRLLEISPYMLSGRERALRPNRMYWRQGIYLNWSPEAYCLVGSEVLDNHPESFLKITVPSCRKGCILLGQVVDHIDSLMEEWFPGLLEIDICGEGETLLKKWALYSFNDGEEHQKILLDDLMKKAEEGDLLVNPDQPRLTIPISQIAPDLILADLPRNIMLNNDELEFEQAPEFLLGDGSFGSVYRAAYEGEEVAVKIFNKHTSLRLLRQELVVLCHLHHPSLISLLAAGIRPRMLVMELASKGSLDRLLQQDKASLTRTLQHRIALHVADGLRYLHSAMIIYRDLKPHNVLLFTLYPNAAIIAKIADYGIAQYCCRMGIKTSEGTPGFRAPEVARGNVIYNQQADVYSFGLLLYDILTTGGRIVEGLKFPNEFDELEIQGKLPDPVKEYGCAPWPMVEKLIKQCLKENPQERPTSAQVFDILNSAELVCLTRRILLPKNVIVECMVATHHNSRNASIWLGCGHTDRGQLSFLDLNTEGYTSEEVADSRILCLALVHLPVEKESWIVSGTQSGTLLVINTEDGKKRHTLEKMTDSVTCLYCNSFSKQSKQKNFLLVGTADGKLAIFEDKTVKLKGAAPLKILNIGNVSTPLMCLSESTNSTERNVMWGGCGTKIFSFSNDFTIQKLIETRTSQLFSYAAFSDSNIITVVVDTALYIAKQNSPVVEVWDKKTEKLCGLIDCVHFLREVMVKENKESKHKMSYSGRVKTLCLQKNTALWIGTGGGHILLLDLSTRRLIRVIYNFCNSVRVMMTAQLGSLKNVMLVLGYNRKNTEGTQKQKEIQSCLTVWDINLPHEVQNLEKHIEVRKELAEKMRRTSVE
T2 sequence (Q5S007 whole entry G2019S): as the sequence (Q5S007 whole entry) above, with G2019S counted along it

The IC50 is the concentration that inhibits the measured activity by half. On to `N#Cc1ccc2c(c1)CCC[C@H]2Oc1cc2c(-c3cnco3)n[nH]c2cn1` (single isomer, unassigned) [Example 32, enantiomer 2, 5-((3-(Oxazol-5-yl)-1H-pyrazolo[3,4-c]pyridin-5-yl)oxy)-5,6,7,8-tetrahydronaphthalene-2-carbonitrile], for which the IC50 in experiment [1] and in experiment [2] was less than 100 nM throughout.

Turning to `N#Cc1ccc2c(c1)CCC[C@@H]2Nc1cc2c(-c3cnco3)n[nH]c2cn1` (single isomer, unassigned) [Example 33, enantiomer 1, 5-((3-(Oxazol-5-yl)-1H-pyrazolo[3,4-c]pyridin-5-yl)amino)-5,6,7,8-tetrahydronaphthalene-2-carbonitrile], the IC50 in experiment [1] and in experiment [2] was less than 100 nM throughout.

Regarding `N#Cc1ccc2c(c1)CCC[C@@H]2Nc1cc2c(-c3cnco3)n[nH]c2cn1` (single isomer, unassigned) [Example 33, enantiomer 2, 5-((3-(Oxazol-5-yl)-1H-pyrazolo[3,4-c]pyridin-5-yl)amino)-5,6,7,8-tetrahydronaphthalene-2-carbonitrile], the IC50 in experiment [1] and in experiment [2] was 100 to 1000 nM throughout.

As to `N#Cc1nc2c(o1)CCC[C@@H]2Nc1ccc2[nH]nc(-c3cnco3)c2c1` (single isomer, unassigned) [Example 35, enantiomer 1, 4-((3-(Oxazol-5-yl)-1H-indazol-5-yl)amino)-4,5,6,7-tetrahydrobenzo[d]oxazole-2-carbonitrile], the half-inhibitory concentration (IC50) in experiment [1] and in experiment [2] was less than 100 nM each time.

For the compound `N#Cc1nc2c(o1)CCC[C@@H]2Nc1ccc2[nH]nc(-c3cnco3)c2c1` (single isomer, unassigned) [Example 35, enantiomer 2, 4-((3-(Oxazol-5-yl)-1H-indazol-5-yl)amino)-4,5,6,7-tetrahydrobenzo[d]oxazole-2-carbonitrile], the 50% inhibitory concentration (IC50) in experiment [1] and in experiment [2] was 100 to 1000 nM in each case.

As for `N#Cc1nc2c(o1)CCC2Nc1ccc2[nH]nc(-c3cnco3)c2c1` (single isomer, unassigned) [Example 36, enantiomer 1, 4-((3-(Oxazol-5-yl)-1H-indazol-5-yl)amino)-5,6-dihydro-4H-cyclopenta[d]oxazole-2-carbonitrile], the figures for the IC50 in experiment [1] and in experiment [2] were 1000 to 10000 nM and 100 to 1000 nM, respectively.

With `N#Cc1nc2c(o1)CCC2Nc1ccc2[nH]nc(-c3cnco3)c2c1` (single isomer, unassigned) [Example 36, enantiomer 2, 4-((3-(Oxazol-5-yl)-1H-indazol-5-yl)amino)-5,6-dihydro-4H-cyclopenta[d]oxazole-2-carbonitrile], the IC50 in experiment [1] and in experiment [2] was less than 100 nM in each case.

On to `N#Cc1cccc2c1[C@@H](Oc1ccc3[nH]nc(-c4cnco4)c3c1)CC2` (single isomer, unassigned) [Example 37, enantiomer 1, 3-((3-(Oxazol-5-yl)-1H-indazol-5-yl)oxy)-2,3-dihydro-1H-indene-4-carbonitrile], for which the half-inhibitory concentration (IC50) in experiment [1] and in experiment [2] was less than 100 nM throughout.

With `N#Cc1ccc2c(c1)CCC[C@@H]2Oc1ccc2[nH]nc(-c3ccnc(N4CCOCC4)c3)c2c1` (single isomer, unassigned) [Example 39, enantiomer 1, 5-((3-(2-Morpholinopyridin-4-yl)-1H-indazol-5-yl)oxy)-5,6,7,8-tetrahydronaphthalene-2-carbonitrile], the half-maximal inhibitory concentration (IC50) in experiment [1] and in experiment [2] was less than 100 nM throughout.

With `COc1cc(-c2n[nH]c3ccc(N[C@H]4CCc5cc(C#N)ccc54)cc23)ccn1` (single isomer, unassigned) [Example 40, enantiomer 1, 1-((3-(2-Methoxypyridin-4-yl)-1H-indazol-5-yl)amino)-2,3-dihydro-1H-indene-5-carbonitrile], the IC50 in experiment [1] was 100 to 1000 nM; in experiment [2], less than 100 nM.
